Patent publication US10323041B2, “Bicyclic derivatives, a process for their preparation and pharmaceutical compositions containing them” (LES LABORATOIRES SERVIER, priority 2015, dated 2019)

Biological target: Mcl-1 protein (Homo sapiens, UniProt Q07820)
Test: Inhibition of Mcl-1 by the fluorescence polarisation technique
Type: binding
Details: for IC50: Method 1 (not underlined) or Method 2 (underlined), underlining not visible, first value where cell prints two, read-out: IC50 (M) Mcl-1 FP
Description: The relative binding potency of each compound was determined via fluorescence Polarisation (FP). The method utilised a Fluorescein labelled ligand Fluorescein-βAla-Ahx-[A-REIGAQLRRMADDLNAQY (SEQ ID NO: 1)]-OH; mw 2,765) which binds to the Mcl-1 protein (such that corresponds to the UniProtKB® primary accession number: Q07820) leading to an increased anisotropy measured in milli-polarisation (mP) units using a reader. The addition of a compound which binds competitively to the same site as the ligand will result in a greater proportion of unbound ligand in the system indicated by a decrease in mP units.
Method 1: An 11 point serial dilution of each compound was prepared in DMSO and 2 μl transferred into flat bottomed, low binding, 384-well plate (final DMSO concentration 5%). 38 μl of buffer (10 mM 4-(2-hydroxyethyl)-1-piperazineethanesulfonic acid [HEPES], 150 mM NaCl, 0.05% Tween 20, pH 7.4), containing the Fluorescein labelled ligand (final concentration 1 nM) and Mcl-1 protein (final concentration 5 nM) was then added.
(§1) Assay plates were incubated ˜2 hours at room temperature before FP was measured on a […] Synergy2 reader (Ex. 528 nm, Em. 640 nm, Cut off 510 nm) and mP units calculated. The binding of increasing doses of test compound was expressed as a percentage reduction in mP compared to a window established between ‘5% DMSO only’ and ‘100% inhibition’ controls. 11-point dose response curves were plotted with XL-Fit software using a 4-Parameter Logistic Model (Sigmoidal Dose-Response Model) and the inhibitory concentrations that gave a 50% reduction in mP (IC50) were determined. Results obtained using Method 1 are presented in Table 1 below; IC50 of Mcl-1 inhibition obtained using Method 1 are not underlined.
Method 2: An 11 point serial dilution of each compound was prepared in DMSO and 2 μl transferred into flat bottomed, low binding, 384-well plate (final DMSO concentration 5%). 38 μl of buffer (20 mM Na2HPO4, 1 mM EDTA, 50 mM NaCl, pH 7.4), containing the Fluorescein labelled ligand (final concentration 10 nM) and Mcl-1 protein (final concentration 10 nM) was then added.
as §1, with “inhibition’ controls (50 μM unlabelled ligand).” for “inhibition’ controls.”, “Method 2” for “Method 1”, “are” for “are not”

[1] = @ 10 μM test compound, partial inhibitors

Mcl-1 protein, sequence (Q07820 whole entry): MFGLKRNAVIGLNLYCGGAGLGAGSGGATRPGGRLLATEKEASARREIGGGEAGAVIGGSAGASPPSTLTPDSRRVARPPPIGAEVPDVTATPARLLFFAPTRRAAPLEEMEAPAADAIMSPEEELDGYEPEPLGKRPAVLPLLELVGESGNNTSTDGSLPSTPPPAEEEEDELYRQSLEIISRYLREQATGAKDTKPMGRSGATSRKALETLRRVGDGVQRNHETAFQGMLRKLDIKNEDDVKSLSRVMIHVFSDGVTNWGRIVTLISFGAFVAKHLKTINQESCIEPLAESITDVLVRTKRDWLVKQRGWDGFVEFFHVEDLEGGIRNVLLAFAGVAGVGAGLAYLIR

Row | Compound | IC50 [M] | further results
1 | CCc1c(-c2cccc(Cl)c2C)c2c(NC(Cc3ccccc3)C(=O)O)ncnc2n1Cc1ccc(OC)cc1 (single isomer, unassigned) [Example 35, N-[(5Sa)-5-(3-chloro-2-methylphenyl)-6-ethyl-7-(4-methoxybenzyl)-7H-pyrrolo[2,3-d]pyrimidin-4-yl]-D-phenylalanine] | 2.9e-07 | –
2 | Cn1cc(-c2cccc3ccccc23)c2c(N[C@H](Cc3ccccc3)C(=O)O)ncnc21 [Example 10, N-[7-methyl-5-(naphthalen-1-yl)-7H-pyrrolo[2,3-d]pyrimidin-4-yl]-D-phenylalanine] | 1.8e-05 | –
3 | COc1ccccc1CC(Oc1cccc2oc(-c3ccc(F)cc3)c(-c3ccc(OCCN4CCN(C)CC4)c(Cl)c3C)c12)C(=O)O [Example 62, (2R)-2-{[(3Sa)-3-{3-chloro-2-methyl-4-[2-(4-methylpiperazin-1-yl)ethoxy]phenyl}-2-(4-fluorophenyl)-1-benzofuran-4-yl]oxy}-3-(2-methoxyphenyl)propanoic acid] | 8.2e-07 | –
4 | COc1ccccc1CC(Oc1cccc2oc(-c3ccc(F)cc3)c(-c3ccc(OCCN4CCN(C)CC4)c(Cl)c3C)c12)C(=O)O [Example 61, (2R)-2-{[(3Ra)-3-{3-chloro-2-methyl-4-[2-(4-methylpiperazin-1-yl)ethoxy]phenyl}-2-(4-fluorophenyl)-1-benzofuran-4-yl]oxy}-3-(2-methoxyphenyl)propanoic acid] | – | percentage fluorescence polarization inhibition [1]: 52.8% @ 10 μM
5 | O=C(O)[C@@H](Cc1ccccc1)Nc1ncnc2[nH]cc(-c3cccc4ccccc34)c12 [Example 11, N-[5-(naphthalen-1-yl)-7H-pyrrolo[2,3-d]pyrimidin-4-yl]-D-phenylalanine] | 3.4e-05 | –
6 | CCc1c(-c2cccc3ccccc23)c2c(N[C@H](Cc3ccccc3)C(=O)O)ncnc2n1CCOc1cccc2ccccc12 (single isomer, unassigned) [Example 15, N-{6-ethyl-5-(naphthalen-1-yl)-7-[2-(naphthalen-1-yloxy)ethyl]-7H-pyrrolo[2,3-d]pyrimidin-4-yl}-D-phenylalanine] | 7.3e-06 | –
7 | C=CCCn1c(Br)c(-c2cccc(Cl)c2C)c2c(NC(Cc3ccccc3)C(=O)O)ncnc21 (single isomer, unassigned) [Example 41, N-[6-bromo-7-(but-3-en-1-yl)-(5Ra)-5-(3-chloro-2-methylphenyl)-7H-pyrrolo[2,3-d]pyrimidin-4-yl]-D-phenylalanine] | 1.3e-05 | –
8 | CCc1c(-c2cccc(Cl)c2C)c2c(N[C@H](Cc3ccccc3)C(=O)O)ncnc2n1C(C)C [Example 39, N-[(5Sa)-5-(3-chloro-2-methylphenyl)-6-ethyl-7-(propan-2-yl)-7H-pyrrolo[2,3-d]pyrimidin-4-yl]-D-phenylalanine] | – | percentage fluorescence polarization inhibition (@ 50 μM test compound, partial inhibitors, 50 µM): 77.75% @ 50 μM
9 | CCc1c(-c2cccc(Cl)c2C)c2c(NC(Cc3ccccc3)C(=O)O)ncnc2n1CCC1CCCC1 (single isomer, unassigned) [Example 30, N-[(5Ra)-5-(3-chloro-2-methylphenyl)-7-(2-cyclopentylethyl)-6-ethyl-7H-pyrrolo[2,3-d]pyrimidin-4-yl]-D-phenylalanine] | 6.4e-06 | –
10 | CCc1sc2cccc(OC(Cc3ccccc3)C(=O)O)c2c1-c1ccc(O)c(Cl)c1C [Example 50, (2R)-2-{[(3Ra)-3-(3-chloro-4-hydroxy-2-methylphenyl)-2-ethyl-1-benzothiophen-4-yl]oxy}-3-phenylpropanoic acid] | – | percentage fluorescence polarization inhibition [1]: 65.85% @ 10 μM
11 | CCc1c(-c2cccc(Cl)c2C)c2c(NC(Cc3ccccc3)C(=O)O)ncnc2n1C [Example 21, N-[(5Sa)-5-(3-chloro-2-methylphenyl)-6-ethyl-7-methyl-7H-pyrrolo[2,3-d]pyrimidin-4-yl]-D-phenylalanine] | 8.7e-06 | –
12 | C=CCCn1c(Br)c(-c2cccc(Cl)c2C)c2c(NC(Cc3ccccc3)C(=O)O)ncnc21 (single isomer, unassigned) [Example 42, N-[6-bromo-7-(but-3-en-1-yl)-(5Sa)-5-(3-chloro-2-methylphenyl)-7H-pyrrolo[2,3-d]pyrimidin-4-yl]-D-phenylalanine] | 4.5e-07 | –
13 | CCc1c(-c2cccc3ccccc23)c2c(N[C@H](Cc3ccccc3)C(=O)O)ncnc2n1CCCc1ccccc1 (single isomer, unassigned) [Example 18, N-[6-ethyl-5-(naphthalen-1-yl)-7-(3-phenylpropyl)-7H-pyrrolo[2,3-d]pyrimidin-4-yl]-D-phenylalanine] | 3.1e-06 | –
14 | CC#CCn1c(CC)c(-c2cccc(Cl)c2C)c2c(NC(Cc3ccccc3)C(=O)O)ncnc21 (single isomer, unassigned) [Example 26, N-[7-(but-2-yn-1-yl)-(5Ra)-5-(3-chloro-2-methylphenyl)-6-ethyl-7H-pyrrolo[2,3-d]pyrimidin-4-yl]-D-phenylalanine] | 5.9e-06 | –
15 | Cc1c(Cl)cccc1-c1c2n(c3ncnc(NC(Cc4ccccc4)C(=O)O)c13)CCCC2 (single isomer, unassigned) [Example 48, N-[(5Sa)-5-(3-chloro-2-methylphenyl)-6,7,8,9-tetrahydropyrimido[5,4-b]indolizin-4-yl]-D-phenylalanine] | 5.9e-06 | –
16 | CCc1c(-c2cccc(Cl)c2C)c2c(NC(Cc3ccccc3)C(=O)O)ncnc2n1CC(F)(F)F [Example 28, N-[(5Ra)-5-(3-chloro-2-methylphenyl)-6-ethyl-7-(2,2,2-trifluoroethyl)-7H-pyrrolo[2,3-d]pyrimidin-4-yl]-D-phenylalanine] | – | percentage fluorescence polarization inhibition (@ 50 μM test compound, partial inhibitors): 63.25% @ 50 μM
17 | CCc1c(-c2cccc(Cl)c2C)c2c(NC(Cc3ccccc3)C(=O)O)ncnc2n1CCC1CCCC1 (single isomer, unassigned) [Example 31, N-[(5Sa)-5-(3-chloro-2-methylphenyl)-7-(2-cyclopentylethyl)-6-ethyl-7H-pyrrolo[2,3-d]pyrimidin-4-yl]-D-phenylalanine] | 7.9e-07 | –
18 | COc1ccccc1C[C@@H](Oc1cccc2cc(-c3ccc(F)cc3)n(-c3ccc(OCCN4CCN(C)CC4)c(Cl)c3C)c12)C(=O)O [Example 55] | – | percentage fluorescence polarization inhibition [1]: 55.35% @ 10 μM
19 | Cc1c(-c2c(-c3ccc(F)cc3)oc3cccc(OC(Cc4ccccc4OCC(F)(F)F)C(=O)O)c23)ccc(OCCN2CCN(C)CC2)c1Cl [Example 65, (2R)-2-{[(3Sa)-3-{3-chloro-2-methyl-4-[2-(4-methylpiperazin-1-yl)ethoxy]phenyl}-2-(4-fluorophenyl)-1-benzofuran-4-yl]oxy}-3-[2-(2,2,2-trifluoroethoxy)phenyl]propanoic acid] | 1e-06 | –
20 | CCc1sc2cccc(CC(Cc3ccccc3)C(=O)O)c2c1-c1ccc(O)c(Cl)c1C (stereo not drawn) [Example 54, 2-benzyl-3-[3-(3-chloro-4-hydroxy-2-methylphenyl)-2-ethyl-1-benzothiophen-4-yl]propanoic acid] | 1.2e-07 | –
21 | CCc1c(-c2cccc(Cl)c2C)c2c(NC(Cc3ccccc3)C(=O)O)ncnc2n1Cc1cccc2ccccc12 (single isomer, unassigned) [Example 33, N-[(5Sa)-5-(3-chloro-2-methylphenyl)-6-ethyl-7-(naphthalen-1-ylmethyl)-7H-pyrrolo[2,3-d]pyrimidin-4-yl]-D-phenylalanine] | 2.6e-07 | –
22 | C=CCn1c(Br)c(-c2cccc(Cl)c2C)c2c(NC(Cc3ccccc3)C(=O)O)ncnc21 [Example 44, N-[6-bromo-(5Sa)-5-(3-chloro-2-methylphenyl)-7-(prop-2-en-1-yl)-7H-pyrrolo[2,3-d]pyrimidin-4-yl]-D-phenylalanine] | 2.5e-06 | –
23 | COc1ccccc1CC(Oc1cccc2c(Cl)c(-c3ccc(F)cc3)n(-c3ccc(OCCN4CCN(C)CC4)c(Cl)c3C)c12)C(=O)O [Example 57, (2R)-2-{[3-chloro-(1Sa)-1-{3-chloro-2-methyl-4-[2-(4-methylpiperazin-1-yl)ethoxy]phenyl}-2-(4-fluorophenyl)-1H-indol-7-yl]oxy}-3-(2-methoxyphenyl)propanoic acid] | 1.7e-07 | –
24 | Cc1c(Cl)cccc1-c1csc2ccnc(N[C@H](Cc3ccccc3)C(=O)O)c12 [Example 70, N-[3-(3-chloro-2-methylphenyl)thieno[3,2-c]pyridin-4-yl]-D-phenylalanine] | – | inhibition at 10 µM (@ 10 μM test compound, partial inhibitors, read-out: percentage fluorescence polarization inhibition): 13.6%
